Legend:
[1] = tested on: M. truncatula root epidermal cells; assay: LCO-induced nuclear calcium oscillations after strigolactone or karrikin pre-treatment; assay type: cell-based, Medicago truncatula; conditions: 3.75 mM PO4− and 0 mM NO3−; 1 μM pre-treatment for 12 hours, then LCO
Protocol: (§1) FIGS. 11A-11B provide the effects of strigolactone or karrikin treatment on M. truncatula (FIG. 11A) and H. vulgare (FIG. 11B) root epidermal cell nuclear calcium oscillations. FIG. 11A provides traces of nuclear calcium oscillations produced by M. truncatula root epidermal cells. Cells were grown under high phosphate and limiting nitrate levels (3.75 mM PO4^− and 0 mM NO3^−). The top trace represents control cells that were pretreated with buffer alone; the second trace represents cells that were pretreated with 1 μM of strigolactone 5-deoxystrigol for 12 hours; and the third trace represents cells that were pretreated with a 1 μM mixture of karrikin 1 and karrikin 2 (KARs) for 12 hours. All cells were secondarily treated with 10^−8 M NS-LCO. The scale bar indicates a span of 10 minutes, and the fractions indicate the number of cells that responded over the total number of cells analyzed.
In FIGS. 11A-11B, M. truncatula (FIG. 11A) and H. vulgare (FIG. 11B) plants were grown on media containing high phosphate and limiting nitrate (3.75 mM PO4^− and 0 mM NO3^− for M. truncatula; 0 mM NO3^− and 0.5 mM PO4^− for H. vulgare). H. vulgare pants tested in FIG. 14A were grown on BNM media containing high nitrate and high phosphate (5 mM NO3^− and 0.5 mM PO4^−). […]

[2] = tested on: H. vulgare root epidermal cells; assay: LCO-induced nuclear calcium oscillations after strigolactone, karrikin and/or CEP pre-treatment; assay type: cell-based, Hordeum vulgare; conditions: then 10^−7 M SmLCO
Protocol: as §1
FIGS. 14A-14D provide the effects of treating H. vulgare plants with a strigolactone or with both a strigolactone and a CEP peptide. […] The scale bar indicates a span of 10 minutes, and the fractions indicate the number of cells that responded over the total number of cells analyzed. FIGS. 14B-14C provide the level of mycorrhizal colonization of H. vulgare when treated with the synthetic strigolactone analog GR24 under different nutrient conditions, as determined in two separate experiments. […]

[3] = tested on: H. vulgare LysM receptor-like kinase homologs; assay: LysM receptor-like kinase gene expression by RT-qPCR after strigolactone or karrikin treatment; assay type: in vivo, Hordeum vulgare; conditions: −N+P plates for 4 days, then 0.1 μM for 24 hours; relative to DMSO mock
Source text: FIG. 13 provides the relative expression levels of H. vulgare genes, including LysM receptor-like kinase homologs, in response to treatment with strigolactone or karrikin signaling molecules, as determined by qPCR. The H. vulgare gene is indicated on the x-axis including, from left to right, HvSTH7b (a homolog of Arabidopsis STH7, a karrikin-responsive gene (Nelson et al., 2010, PNAS)), HvRLK2, HvRLK3, HvRLK7, HvRLK9, and HvRLK10. Relative expression levels are shown on the y-axis. Values shown are the mean of three samples±SD. ** indicates P<0.01, and * indicates 0.01<P<0.05, as determined by a Student's t-test. […]
Wild type H. vulgare plants tested in FIG. 13 were grown on BNM plates for four days, and the plate roots were then treated with either 0.1 μM 5′-deoxystrigol (Chiralix), a mixture of 0.1 μM Karrikin 1 or 0.1 μM Karrikin 2 (Chiralix), or 0.1 μM GR24 (Chiralix) in liquid BNM for 24 hours. […] Real-time quantitative PCR (RT-qPCR) was performed using SensiFAST SYBR No-ROX Kit. An H. vulgare ADP gene was used as a reference gene, and fold changes were calculated for 5′-deoxystrigol-, karrikins- or GR24-treated roots with respect to DMSO-treated roots (mock treatment). […]

5-deoxystrigol [strigolactone]
symbiotic calcium oscillations under replete phosphate after pre-treatment [1]: overrode phosphate suppression of symbiotic calcium oscillations | symbiotic calcium oscillations under replete phosphate after pre-treatment ([2]; 0 mM NO3− and 0.5 mM PO4−, 1 μM pre-treatment for 12 hrs): overrode phosphate suppression of symbiotic calcium oscillations | LCO induction of calcium oscillations under high nitrate after pre-treatment ([2]; 5 mM NO3− and 0.5 mM PO4−, 1 μM SL): only limited LCO induction of calcium oscillations | expression of LysM receptor-like kinase genes, including RLK10 [3]: induced

From patent publication US12503707B2, “Methods, plants and compositions for overcoming nutrient suppression of mycorrhizal symbiosis” (Cambridge Enterprise Limited, priority 2020, dated 2025)
